How the values were obtained:
Nitric oxide synthase 3 = target: T1, Nitric oxide synthase 3 (Homo sapiens, UniProt P29474); assay: Inhibition of endothelial nitric oxide synthase
T1 sequence (P29474 whole entry): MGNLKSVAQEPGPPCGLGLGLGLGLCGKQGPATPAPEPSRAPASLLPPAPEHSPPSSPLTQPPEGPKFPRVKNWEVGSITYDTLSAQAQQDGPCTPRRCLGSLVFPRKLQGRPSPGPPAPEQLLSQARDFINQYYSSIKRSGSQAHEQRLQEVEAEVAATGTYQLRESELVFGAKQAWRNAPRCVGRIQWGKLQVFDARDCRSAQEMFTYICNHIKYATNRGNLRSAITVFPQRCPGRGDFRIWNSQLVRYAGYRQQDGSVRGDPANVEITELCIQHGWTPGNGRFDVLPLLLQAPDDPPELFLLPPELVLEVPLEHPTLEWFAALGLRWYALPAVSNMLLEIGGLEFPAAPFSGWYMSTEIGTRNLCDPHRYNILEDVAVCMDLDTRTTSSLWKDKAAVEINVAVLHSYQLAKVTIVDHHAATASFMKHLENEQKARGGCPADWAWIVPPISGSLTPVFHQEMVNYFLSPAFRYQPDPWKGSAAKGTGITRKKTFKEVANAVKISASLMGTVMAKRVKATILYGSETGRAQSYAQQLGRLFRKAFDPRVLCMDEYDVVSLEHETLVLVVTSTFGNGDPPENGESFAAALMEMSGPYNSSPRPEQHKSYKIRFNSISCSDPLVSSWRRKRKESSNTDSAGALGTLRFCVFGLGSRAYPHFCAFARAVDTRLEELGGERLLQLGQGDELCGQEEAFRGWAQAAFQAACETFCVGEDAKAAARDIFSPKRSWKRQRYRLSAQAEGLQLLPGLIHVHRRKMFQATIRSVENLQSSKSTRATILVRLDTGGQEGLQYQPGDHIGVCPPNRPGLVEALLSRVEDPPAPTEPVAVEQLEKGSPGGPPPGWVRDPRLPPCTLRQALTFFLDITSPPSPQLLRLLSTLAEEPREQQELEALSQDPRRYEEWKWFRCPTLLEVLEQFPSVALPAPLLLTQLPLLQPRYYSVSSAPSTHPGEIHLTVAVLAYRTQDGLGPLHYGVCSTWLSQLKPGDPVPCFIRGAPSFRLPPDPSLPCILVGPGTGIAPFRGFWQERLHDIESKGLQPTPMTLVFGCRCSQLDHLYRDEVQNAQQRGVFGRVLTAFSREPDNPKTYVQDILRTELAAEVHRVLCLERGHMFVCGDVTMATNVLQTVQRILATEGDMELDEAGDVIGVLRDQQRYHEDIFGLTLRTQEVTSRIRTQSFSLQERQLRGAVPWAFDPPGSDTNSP

[1] = target: T2, Nitric oxide synthase, inducible (Homo sapiens, UniProt P35228); assay: Inhibition of inducible nitric oxide synthase
T2 sequence (P35228 whole entry): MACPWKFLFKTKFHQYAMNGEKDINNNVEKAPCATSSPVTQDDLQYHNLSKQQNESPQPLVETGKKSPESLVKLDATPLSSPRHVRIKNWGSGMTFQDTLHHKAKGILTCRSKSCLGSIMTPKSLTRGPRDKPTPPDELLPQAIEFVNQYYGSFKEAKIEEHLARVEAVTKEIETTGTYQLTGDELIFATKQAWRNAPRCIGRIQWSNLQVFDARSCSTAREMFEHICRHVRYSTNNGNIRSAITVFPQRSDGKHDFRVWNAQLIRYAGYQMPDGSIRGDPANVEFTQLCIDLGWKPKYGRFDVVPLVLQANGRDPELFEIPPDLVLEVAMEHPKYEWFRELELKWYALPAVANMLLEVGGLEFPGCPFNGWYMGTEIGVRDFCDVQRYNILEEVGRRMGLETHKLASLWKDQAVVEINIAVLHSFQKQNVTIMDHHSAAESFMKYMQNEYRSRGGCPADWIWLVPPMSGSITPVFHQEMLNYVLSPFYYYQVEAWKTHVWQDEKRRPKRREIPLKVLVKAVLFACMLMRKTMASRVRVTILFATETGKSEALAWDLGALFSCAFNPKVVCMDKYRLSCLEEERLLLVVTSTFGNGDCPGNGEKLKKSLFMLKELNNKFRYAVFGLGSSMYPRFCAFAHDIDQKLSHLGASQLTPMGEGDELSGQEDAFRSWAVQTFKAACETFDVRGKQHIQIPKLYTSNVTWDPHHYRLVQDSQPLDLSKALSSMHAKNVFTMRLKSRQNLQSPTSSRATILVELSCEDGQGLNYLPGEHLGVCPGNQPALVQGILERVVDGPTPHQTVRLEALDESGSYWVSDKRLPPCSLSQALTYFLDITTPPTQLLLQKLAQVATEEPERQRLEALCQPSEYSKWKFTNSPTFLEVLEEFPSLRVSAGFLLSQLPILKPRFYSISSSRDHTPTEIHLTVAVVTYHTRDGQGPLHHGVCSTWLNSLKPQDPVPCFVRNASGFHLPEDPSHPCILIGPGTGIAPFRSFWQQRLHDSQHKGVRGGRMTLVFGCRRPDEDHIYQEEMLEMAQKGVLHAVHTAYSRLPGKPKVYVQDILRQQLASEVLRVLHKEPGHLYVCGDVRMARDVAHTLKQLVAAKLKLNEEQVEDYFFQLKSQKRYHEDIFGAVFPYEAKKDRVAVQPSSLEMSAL

Nitric oxide synthase 1 [2] = target: T3, Nitric oxide synthase 1 (Homo sapiens, UniProt P29475); assay: Inhibition of Neuronal nitric oxide synthase
T3 sequence (P29475 whole entry): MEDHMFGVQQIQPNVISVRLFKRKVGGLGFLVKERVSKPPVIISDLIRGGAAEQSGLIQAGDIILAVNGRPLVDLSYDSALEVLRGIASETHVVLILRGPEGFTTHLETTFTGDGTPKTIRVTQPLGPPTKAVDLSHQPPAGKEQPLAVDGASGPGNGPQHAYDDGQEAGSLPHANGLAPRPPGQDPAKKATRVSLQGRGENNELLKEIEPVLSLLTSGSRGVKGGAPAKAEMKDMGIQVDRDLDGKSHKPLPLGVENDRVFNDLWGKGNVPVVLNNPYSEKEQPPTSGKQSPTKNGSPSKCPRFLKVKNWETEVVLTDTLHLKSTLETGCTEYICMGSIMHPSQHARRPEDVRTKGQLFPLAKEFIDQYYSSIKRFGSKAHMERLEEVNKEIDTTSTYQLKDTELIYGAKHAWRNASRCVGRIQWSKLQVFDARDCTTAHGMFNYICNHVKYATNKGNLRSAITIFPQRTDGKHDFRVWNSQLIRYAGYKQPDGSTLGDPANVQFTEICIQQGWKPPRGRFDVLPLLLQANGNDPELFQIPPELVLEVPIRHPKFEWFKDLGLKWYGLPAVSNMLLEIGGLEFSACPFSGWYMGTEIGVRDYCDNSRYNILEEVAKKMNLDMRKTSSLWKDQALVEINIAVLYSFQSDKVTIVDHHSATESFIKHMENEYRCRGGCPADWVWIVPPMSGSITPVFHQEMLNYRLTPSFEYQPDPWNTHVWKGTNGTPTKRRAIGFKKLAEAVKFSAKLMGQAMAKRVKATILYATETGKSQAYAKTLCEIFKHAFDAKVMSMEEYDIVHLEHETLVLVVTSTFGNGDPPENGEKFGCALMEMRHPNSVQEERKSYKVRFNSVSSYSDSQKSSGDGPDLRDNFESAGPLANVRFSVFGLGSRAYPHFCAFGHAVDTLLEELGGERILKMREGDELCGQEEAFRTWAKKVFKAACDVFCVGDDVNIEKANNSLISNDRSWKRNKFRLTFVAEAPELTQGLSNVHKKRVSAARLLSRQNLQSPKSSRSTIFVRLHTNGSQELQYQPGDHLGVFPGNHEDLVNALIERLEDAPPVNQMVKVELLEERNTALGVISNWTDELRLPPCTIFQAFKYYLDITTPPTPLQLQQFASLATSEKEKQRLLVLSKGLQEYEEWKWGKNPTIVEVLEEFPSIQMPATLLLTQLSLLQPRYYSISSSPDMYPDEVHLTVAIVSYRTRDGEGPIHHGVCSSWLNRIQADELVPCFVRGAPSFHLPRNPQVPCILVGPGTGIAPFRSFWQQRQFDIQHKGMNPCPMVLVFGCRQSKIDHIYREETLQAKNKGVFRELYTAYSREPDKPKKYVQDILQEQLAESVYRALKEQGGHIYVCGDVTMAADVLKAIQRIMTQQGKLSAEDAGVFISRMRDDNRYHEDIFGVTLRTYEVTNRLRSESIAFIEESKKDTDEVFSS

[3] = target: T4, Nitric oxide synthase 3 (Homo sapiens) (UniProt P29474); assay: Inhibitory activity against Endothelial nitric oxide synthase at 100 uM concentration was determined
T4 sequence (whole entry): T1 sequence (P29474 whole entry)

[4] = target: T2, Nitric oxide synthase, inducible; assay: Inhibitory activity against Inducible nitric oxide synthase at 100 uM concentration was determined
Nitric oxide synthase 1 [5] = target: T3, Nitric oxide synthase 1; assay: Inhibitory activity against Neuronal nitric oxide synthase at 100 uM concentration was determined

Row | SMILES | IC50 (Nitric oxide synthase 3) | IC50 [1] | IC50 (Nitric oxide synthase 1 [2]) | inhibition [3] | inhibition [4] | inhibition (Nitric oxide synthase 1 [5])
1 | CCOC(=O)[C@H]1CSCCC(N)=N1 |  |  |  | 13.9% | 70.9% | 82.6%
2 | N/C1=N/CCCSCC1 | 186 µM | 13.1 µM | 21 µM |  |  | 
3 | NC1=NCCOCC1 | 72.7 µM | 14 µM | 17.7 µM |  |  | 
4 | NC1=NCCSCC1 | 43.6 µM | 2.7 µM | 6.8 µM |  |  | 
5 | CCOC(=O)[C@@H]1CSCCC(N)=N1 |  |  |  | 8.66% | 70.9% | 84.8%
6 | N=C1CCOCC(CC[N+](=O)[O-])N1 (configuration not stated) | 49.3 µM | 0.979 µM | 6.24 µM |  |  | 
7 | CN1CCN=C(N)CC1 |  |  |  | 6.42% | 32.1% | 

Results, then the molecule that gave them:

Row | IC50 (Nitric oxide synthase 3) | IC50 [1] | IC50 (Nitric oxide synthase 1 [2]) | inhibition [3] | inhibition [4] | inhibition (Nitric oxide synthase 1 [5]) | SMILES
8 | 2.77 µM | 0.152 µM | 0.339 µM |  |  |  | NC1=NC(CC[N+](=O)[O-])CCCC1 (configuration not stated)
9 | 248 µM | 6.66 µM | 8.39 µM |  |  |  | NCCC1COCCC(N)=N1 (configuration not stated)
10 | 709 µM | 9.26 µM | 108 µM |  |  |  | C/C=C/CC1COCCC(N)=N1 (configuration not stated)
11 | 206 µM | 0.89 µM | 3.39 µM |  |  |  | C/C=C/CC1CCCCC(N)=N1 (configuration not stated)
12 | 39.1 µM | 0.701 µM | 0.932 µM |  |  |  | NCCC1CCCCC(N)=N1 (configuration not stated)
13 |  |  |  | 2.4% | 55.7% | 13.9% | CCOC(=O)[C@@H]1CCSCC/C(N)=N\1
14 |  | 0.517 µM |  |  |  |  | CCCCC1CCCCC(N)=N1 (configuration not stated)
15 | 1360 µM | 2.43 µM | 25.9 µM |  |  |  | CCCCC1COCCC(N)=N1 (configuration not stated)

Source: ChEMBL document CHEMBL1133982, “Selective heterocyclic amidine inhibitors of human inducible nitric oxide synthase” (Bioorg Med Chem Lett, 2001)
